Test results as given in patent US11033518B2, “Pharmaceutical composition containing niclosamide for treating axin-GSK3 interaction-related diseases” (BAOBAB PHARM CO., LTD., priority 2017, dated 2021).

How the values were obtained:
[1] = test system: colorectal cancer cell lines HCT116, SW480 and DLD-1; assay: Trypan blue cell viability / apoptosis of colorectal cancer cells; assay type: cell-based; conditions: 48 hours, trypan blue assay
Method: 1×10^5 cells of colorectal cancer cell lines HCT116, SW480 and DLD-1 cell (ATCC, American Type Culture Collection) were cultured overnight in a 6-well plate, and then were washed with PBS, and were cultured in a culture medium treated with niclosamide by each concentration (0 μM, 0.125 μM, 0.25 μM, 0.5 μM, 1 μM, 2 μM, 5 μM and 10 μM) for 48 hours. Apoptosis was measured with trypan blue assay and cell viability was calculated by an equation [1−(number of dead cells/total number of cells)].

[2] = test system: Snail, E-cadherin; assay: Snail western blot and E-cadherin dual luciferase assay in colorectal cancer cells; assay type: cell-based; conditions: as concentration increased
Description: In order to confirm whether niclosamide induced snail-mediated EMT recovery, beta-catenin (β-catenin) expression and TCF/LEF reporter (Topflash) activity change, and Snail and E-cadherin protein expression were confirmed.
Through the western blot, Snail expression change was confirmed, and through the dual luciferase assay system, the expression of E-cadherin protein was confirmed.

[3] = test system: GSK3, β-catenin and Snail; assay: Immunoblotting of nucleo-cytoplasm fractions of colorectal cancer cells; assay type: cell-based; conditions: 0.25 nM, 24 hours, HCT116, SW480 and DLD-1
Method: After treating niclosamide of 0.25 nM to colorectal cancer cell lines HCT116, SW480 and DLD-1 cells for 24 hours, the amount of GSK3, β-catenin and Snail of nucleo-cytoplasm fractions was analyzed by immunoblotting.
The amount of Snail and GSK3 protein in cells was confirmed by separating nuclei and cytoplasm in the hypotonic solution (Kim N H, et al., Sci Signal. 4:ra71, 2011; Yook J I, et al. Nat Cell Biol., 8:[…], 2006). Briefly, after collecting colorectal cancer cells (1×10^6 cells) in a centrifugation tube, they were washed with PBS and were treated with the hypotonic solution (10 mM HEPES, pH7.9; 10 mM KCl; 1 mM DTT with protease inhibitors) 400 μl on ice for 5 minutes. The cell membrane was degraded by addition of 10% NP-40, and the final concentration was adjusted to 0.6% final concentration, and then was mixed well and high-speed centrifugation was conducted for 30 seconds. The cytoplasmic resolvents were separated and nuclear precipitates were washed with cold PBS twice. The nucleoprotein was extracted by treating hypertonic buffer (20 mM HEPES, pH7.9; 0.4 M NaCl; 1 mM DTT with protease inhibitors) on ice for 15 minutes, and then high-speed centrifugation was conducted, and the amount of GSK3, β-catenin and Snail of nucleo-cytoplasm fractions was analyzed by immunoblotting.

[4] = target: T1, Axin2-GSK3 complex (Homo sapiens, UniProt P49841); assay: Immunoprecipitation of His-tagged Axin2 from MCF-7 cell lysates; assay type: binding; conditions: total cell lysates of MCF-7 expressing His-tagged Axin2
T1 construct: Triton X-100 lysates of total cells; endogenous in cells; host or cells: MCF-7 cells; GSK3 is endogenous; His-tagged Axin2 comes from a transfected doxycycline-inducible vector
T1 sequence (P49841 whole entry, one chain of several): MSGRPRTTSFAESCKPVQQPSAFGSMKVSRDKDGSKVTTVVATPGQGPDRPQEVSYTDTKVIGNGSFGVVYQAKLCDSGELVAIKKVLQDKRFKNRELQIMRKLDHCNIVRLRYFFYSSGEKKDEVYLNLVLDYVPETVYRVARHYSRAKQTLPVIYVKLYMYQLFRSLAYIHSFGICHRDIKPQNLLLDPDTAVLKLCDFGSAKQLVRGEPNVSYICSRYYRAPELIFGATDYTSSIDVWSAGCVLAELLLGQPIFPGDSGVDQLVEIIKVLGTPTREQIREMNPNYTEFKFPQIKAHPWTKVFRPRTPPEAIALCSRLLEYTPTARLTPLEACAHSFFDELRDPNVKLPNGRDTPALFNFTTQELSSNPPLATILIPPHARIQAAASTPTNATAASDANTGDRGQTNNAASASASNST
Method: In order to confirm whether niclosamide could inhibit Axin-GSK3 interaction, to perform an immunoprecipitation experiment under the condition with or without niclosamide, cell lysates having full-length Axin2 were investigated.
The immunoprecipitation assay was performed as follows (Yook J I, et al. Nat Cell Biol. 8:1398-1406, 2006).
The doxycycline-induced His-tagged Axin2 expression vector was transformed to MCF-7 cell (ATCC, American Type Culture Collection) and was cultured, and was reacted by treating […] (Invitrogen) and niclosamide of each concentration to Triton X-100 lysates of total cells. The protein recovered in beads was subjected to SDS-PAGE, followed by immunoblot analysis, and a control group of 1/20 volume was added.

[5] = test system: HCT116, SW480 and DLD-1 cells; assay: Cell mobility of colorectal cancer cells through basement membrane; assay type: cell-based; conditions: nM level, 48 hours
Method: At first, the effect on the cell mobility of colorectal cancer cells of niclosamide was confirmed. Colorectal cancer cell lines HCT116, SW480 and DLD-1 cells were cultured under the condition with or without niclosamide for 48 hours, and then the upper part of the membrane was rubbed with a cotton swab and the number of movements of cells inserted into the basement membrane was stained with 0.25% crystal violet and counted. Cells were counted in five random fields.

[6] = target: Helicobacter pylori CagA - GSK3 binding (Homo sapiens, UniProt P49841); assay: Immunoprecipitation of CagA and GSK3; conditions: various amounts
Helicobacter pylori CagA - GSK3 binding, sequence (P49841 whole entry): as the sequence (P49841 whole entry, one chain of several) above
Description: (§1) In view of the results of Examples 2˜5 that niclosamide inhibited Wnt activity and EMT through Axin-GSK3 inhibition, and that CagA of Helicobacter (Helicobacter pylori) bound to GSK-3 similarly to Axin, the effect of GSK-3 binding and Snail induction by CagA of Helicobacter pylori by niclosamide was confirmed. It was confirmed that binding of CagA and GSK3 was inhibited by niclosamide similarly to Axin 2, when examining with immunoprecipitation after adding various amounts of niclosamide to this sample (FIG. 10A). In addition, it could be seen that Snail expression by CagA was inhibited when treating niclosamide after inducing CagA and Snail expression in the 293 cell (FIG. 10B). Through such a result, it could be seen that niclosamide inhibited the function of CagA performing function similar to Axin and thereby inhibited gastric cancer occurrence and inflammation by Helicobacter.

[7] = test system: Snail expression by CagA; assay: Snail expression induced by CagA in the 293 cell; assay type: cell-based
Description: as §1

O=C(Nc1ccc([N+](=O)[O-])cc1Cl)c1cc(Cl)ccc1O [niclosamide]
apoptosis ([1]; nM concentration): did not occur | death of colorectal cells ([1]; μM concentration level): induced death | E-cadherin (promoter activity) ([2]; dual luciferase assay): increased | expression of Snail ([2]; western blot): reduced | GSK3 of nuclei [3]: increased | amount of Snail [3]: reduced | amount of beta-catenin [3]: reduced | GSK3 which bound to Axin2 [4]: reduced | potential of movements of colorectal cancer cells [5]: largely reduced | binding of CagA and GSK3 [6]: inhibited | Snail expression by CagA [7]: inhibited
